Laboratory results reported in ChEMBL document CHEMBL2375339, “Synthesis and evaluation of 7,8-dehydrorutaecarpine derivatives as potential multifunctional agents for the treatment of Alzheimer's disease” (Eur J Med Chem, 2013).
Activity calls are given as the source filed them. The rule behind the calls is not given here.

Assays:
[1] = molecular target: Acetylcholinesterase (Electrophorus electricus) (UniProt O42275); assay: Inhibition of electric eel acetylcholinesterase using acetylthiocholine as substrate up to 100 uM incubated for 15 mins followed by substrate addition measured for 2 mins by Ellman's method relative to control
Sequence of Acetylcholinesterase (Electrophorus electricus) (O42275 24-633 limits assumed): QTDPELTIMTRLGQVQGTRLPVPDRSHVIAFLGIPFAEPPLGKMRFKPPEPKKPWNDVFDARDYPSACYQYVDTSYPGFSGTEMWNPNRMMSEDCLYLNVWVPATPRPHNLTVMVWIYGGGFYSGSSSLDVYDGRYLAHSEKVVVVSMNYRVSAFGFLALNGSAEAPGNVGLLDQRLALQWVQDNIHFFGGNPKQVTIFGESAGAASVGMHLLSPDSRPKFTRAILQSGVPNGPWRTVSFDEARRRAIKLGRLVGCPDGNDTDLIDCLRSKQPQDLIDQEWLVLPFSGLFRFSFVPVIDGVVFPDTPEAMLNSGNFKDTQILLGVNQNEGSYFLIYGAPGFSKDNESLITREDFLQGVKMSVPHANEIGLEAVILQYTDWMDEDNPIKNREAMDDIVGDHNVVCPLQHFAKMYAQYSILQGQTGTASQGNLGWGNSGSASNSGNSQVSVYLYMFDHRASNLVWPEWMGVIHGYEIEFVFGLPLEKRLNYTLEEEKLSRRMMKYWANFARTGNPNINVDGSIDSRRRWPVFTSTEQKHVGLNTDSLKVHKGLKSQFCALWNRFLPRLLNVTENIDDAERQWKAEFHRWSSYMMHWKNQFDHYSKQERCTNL

[2] = molecular target: Acetylcholinesterase (Homo sapiens) (UniProt P22303); assay: Ratio of compound activity to curcumin activity for inhibition of acetylcholinesterase (unknown origin)-induced amyloid beta(1 to 42) aggregation
Sequence of Acetylcholinesterase (Homo sapiens) (P22303 whole entry): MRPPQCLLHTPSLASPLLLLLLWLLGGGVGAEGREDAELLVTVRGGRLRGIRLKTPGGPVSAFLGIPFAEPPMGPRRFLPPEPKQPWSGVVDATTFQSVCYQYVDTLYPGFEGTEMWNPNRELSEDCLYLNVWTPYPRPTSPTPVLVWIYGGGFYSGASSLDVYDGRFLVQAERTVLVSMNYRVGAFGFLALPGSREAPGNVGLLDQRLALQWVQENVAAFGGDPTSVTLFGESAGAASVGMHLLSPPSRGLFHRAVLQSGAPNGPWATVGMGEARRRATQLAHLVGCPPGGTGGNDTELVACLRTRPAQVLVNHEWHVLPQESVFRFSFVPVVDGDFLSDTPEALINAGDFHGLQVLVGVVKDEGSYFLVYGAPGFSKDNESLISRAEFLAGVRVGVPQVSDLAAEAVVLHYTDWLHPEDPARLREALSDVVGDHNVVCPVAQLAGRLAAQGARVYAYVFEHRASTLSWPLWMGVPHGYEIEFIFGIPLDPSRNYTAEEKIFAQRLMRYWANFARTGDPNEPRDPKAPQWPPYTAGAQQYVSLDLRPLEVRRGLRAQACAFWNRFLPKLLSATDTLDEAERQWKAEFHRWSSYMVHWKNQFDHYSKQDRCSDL

[3] = molecular target: Acetylcholinesterase (Homo sapiens) (UniProt P22303); assay: Ratio of compound activity to tacrine activity for inhibition of acetylcholinesterase (unknown origin)-induced amyloid beta(1 to 42) aggregation
[4] = molecular target: Acetylcholinesterase (Electrophorus electricus, UniProt O42275)
Sequence of Acetylcholinesterase (O42275 whole entry): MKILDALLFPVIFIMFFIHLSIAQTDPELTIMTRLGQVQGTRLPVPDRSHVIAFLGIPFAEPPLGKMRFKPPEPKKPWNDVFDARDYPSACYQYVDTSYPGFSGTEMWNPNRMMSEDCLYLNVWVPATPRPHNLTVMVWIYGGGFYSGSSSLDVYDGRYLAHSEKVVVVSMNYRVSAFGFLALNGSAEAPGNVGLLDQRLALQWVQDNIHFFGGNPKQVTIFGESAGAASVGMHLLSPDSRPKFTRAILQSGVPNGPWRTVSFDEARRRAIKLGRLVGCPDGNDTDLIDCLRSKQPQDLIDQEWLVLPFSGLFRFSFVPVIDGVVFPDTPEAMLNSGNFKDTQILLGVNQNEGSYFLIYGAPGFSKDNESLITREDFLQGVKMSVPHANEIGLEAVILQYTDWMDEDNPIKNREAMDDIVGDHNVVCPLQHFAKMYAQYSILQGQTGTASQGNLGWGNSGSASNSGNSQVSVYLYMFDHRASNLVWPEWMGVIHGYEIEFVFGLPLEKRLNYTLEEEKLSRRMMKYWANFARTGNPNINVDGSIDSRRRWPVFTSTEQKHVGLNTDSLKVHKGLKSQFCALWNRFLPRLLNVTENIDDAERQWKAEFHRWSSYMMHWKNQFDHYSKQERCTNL
Description: Inhibition of electric eel acetylcholinesterase using acetylthiocholine as substrate incubated for 15 mins followed by substrate addition measured for 2 mins by Ellman's method

[5] = molecular target: Cholinesterase (Equus caballus, UniProt P81908)
Sequence of Cholinesterase (P81908 whole entry): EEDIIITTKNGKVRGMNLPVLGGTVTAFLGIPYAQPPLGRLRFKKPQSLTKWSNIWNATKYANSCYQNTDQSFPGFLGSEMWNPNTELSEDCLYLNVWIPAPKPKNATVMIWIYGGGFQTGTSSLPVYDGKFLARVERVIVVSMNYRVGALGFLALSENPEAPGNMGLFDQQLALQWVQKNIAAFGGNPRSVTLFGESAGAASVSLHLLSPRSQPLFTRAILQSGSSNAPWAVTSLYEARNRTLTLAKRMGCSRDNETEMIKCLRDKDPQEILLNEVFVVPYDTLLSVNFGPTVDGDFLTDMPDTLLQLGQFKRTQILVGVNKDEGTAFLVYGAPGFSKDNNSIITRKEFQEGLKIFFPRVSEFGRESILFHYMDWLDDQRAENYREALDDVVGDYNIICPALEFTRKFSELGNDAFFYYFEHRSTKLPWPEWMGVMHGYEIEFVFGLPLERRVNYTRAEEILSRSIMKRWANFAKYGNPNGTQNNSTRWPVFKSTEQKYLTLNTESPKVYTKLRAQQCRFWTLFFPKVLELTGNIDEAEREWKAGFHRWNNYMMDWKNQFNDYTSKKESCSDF
Description: Inhibition of horse serum butyrylcholinesterase using butylthiocholine as substrate incubated for 15 mins followed by substrate addition measured for 2 mins by Ellman's method

[6] = cells; settings: Homo sapiens, SH-SY5Y, 48 h
Description: Cytotoxicity against human SH-SY5Y cells assessed as cell viability after 48 hrs by MTT assay

[7] = molecular target: Acetylcholinesterase (Electrophorus electricus) (UniProt O42275); assay: Ratio of tacrine IC50 to compound IC50 for electric eel acetylcholinesterase
[8] = molecular target: Acetylcholinesterase (Electrophorus electricus) (UniProt O42275); assay: Mixed-type inhibition of electric eel AChE using acetylthiocholine as substrate at 3.125 to 50 nM after 15 mins by Lineweaver-Burk plot analysis
[9] = Metal chelating activity of the compound assessed as formation of iron complex at 20 uM after 30 mins by UV-vis spectrophotometric analysis; format: functional
[10] = Metal chelating activity of the compound assessed as formation of magnesium complex at 20 uM after 30 mins by UV-vis spectrophotometric analysis; format: functional
[11] = Metal chelating activity of the compound assessed as formation of calcium complex at 20 uM after 30 mins by UV-vis spectrophotometric analysis; format: functional
[12] = Metal chelating activity of the compound assessed as formation of copper complex at 20 uM after 30 mins by UV-vis spectrophotometric analysis; format: functional
[13] = Metal chelating activity of the compound assessed as formation of copper complex at 20 uM by molar ratio method; format: functional
[14] = Metal chelating activity of the compound assessed as formation of zinc complex at 20 uM after 30 mins by UV-vis spectrophotometric analysis; format: functional
[15] = molecular target: Acetylcholinesterase (Electrophorus electricus) (UniProt O42275); assay: Mixed-type inhibition of electric eel AChE using acetylthiocholine as substrate at 0.125 to 2 nM after 15 mins by Lineweaver-Burk plot analysis
[16] = Metal chelating activity of the compound assessed as formation of potassium complex at 20 uM after 30 mins by UV-vis spectrophotometric analysis; format: functional
[17] = Metal chelating activity of the compound assessed as formation of sodium complex at 20 uM after 30 mins by UV-vis spectrophotometric analysis; format: functional

| Compound | inhibition [1] | Ratio [2] | Ratio [3] | IC50 [4] | IC50 [5] | IC50 [6] | also measured |
| --- | --- | --- | --- | --- | --- | --- | --- |
| C[N+]1(CCC(=O)Nc2ccc3nc4c5[nH]c6ccccc6c5ccn4c(=O)c3c2)CCCC1 | 20% | 2.2 | 15.3 | 0.137 µM | 17.1 µM | 19.1 µM |  |
| O=C(CCNc1ccccc1)Nc1ccc2nc3c4[nH]c5ccccc5c4ccn3c(=O)c2c1 | 20% | 2.2 | 15.3 | 0.0875 µM | 27.8 µM |  |  |
| O=C(COc1cccnc1)Nc1ccc2nc3c4[nH]c5ccccc5c4ccn3c(=O)c2c1 | 20% | 2.2 | 15.3 | 0.00309 µM | 7.3 µM |  |  |
| O=C(CN1CCOCC1)Nc1ccc2nc3c4[nH]c5ccccc5c4ccn3c(=O)c2c1 | 20% | 2.2 | 15.3 | 0.0878 µM | 28.5 µM | 9.9 µM |  |
| Cn1cc[n+](CCC(=O)Nc2ccc3nc4c5[nH]c6ccccc6c5ccn4c(=O)c3c2)c1 | 20% | 2.2 | 15.3 | 0.0093 µM | 7.02 µM | > 100 µM |  |
| COc1cc(/C=C/C(=O)CC(=O)/C=C/c2ccc(O)c(OC)c2)ccc1O [CURCUMIN] |  |  |  |  |  | 35.6 µM |  |
| Cn1cc[n+](CCCC(=O)Nc2ccc3nc4c5[nH]c6ccccc6c5ccn4c(=O)c3c2)c1 | 20% | 2.2 | 15.3 | 0.0117 µM | 8.2 µM |  |  |
| O=C(C[n+]1ccccc1)Nc1ccc2nc3c4[nH]c5ccccc5c4ccn3c(=O)c2c1 | 20% | 2.2 | 15.3 | 0.0008 µM | 2.45 µM | > 100 µM | Ratio IC50 [7]: 160 |
| O=C(CCCN1CCCC1)Nc1ccc2nc3c4[nH]c5ccccc5c4ccn3c(=O)c2c1 | 20% | 2.2 | 15.3 | 0.0846 µM | 18.5 µM |  |  |
| CN1CCN(CC(=O)Nc2ccc3nc4c5[nH]c6ccccc6c5ccn4c(=O)c3c2)CC1 | 20% | 2.2 | 15.3 | 0.158 µM | 29.1 µM | 8.6 µM |  |
| O=C(Cc1ccccc1)Nc1ccc2nc3c4[nH]c5ccccc5c4ccn3c(=O)c2c1 | 20% | 2.2 | 15.3 | 0.116 µM | 24.9 µM |  |  |
| O=C(CCN1CCCC1)Nc1ccc2nc3c4[nH]c5ccccc5c4ccn3c(=O)c2c1 | 20% | 2.2 | 15.3 | 0.0139 µM | 14.9 µM | 21.2 µM | inhibition [8]: Active |
| O=C(CNc1ccccc1)Nc1ccc2nc3c4[nH]c5ccccc5c4ccn3c(=O)c2c1 | 20% | 2.2 | 15.3 | 0.0779 µM | 25.3 µM |  |  |
| O=C(CCOc1cccnc1)Nc1ccc2nc3c4[nH]c5ccccc5c4ccn3c(=O)c2c1 | 20% | 2.2 | 15.3 | 0.0143 µM | 6.43 µM |  |  |
| O=C(CCCc1ccccc1)Nc1ccc2nc3c4[nH]c5ccccc5c4ccn3c(=O)c2c1 | 20% | 2.2 | 15.3 | 0.136 µM | 24.6 µM |  |  |
| Cn1cc[n+](CC(=O)Nc2ccc3nc4c5[nH]c6ccccc6c5ccn4c(=O)c3c2)c1 | 20% | 2.2 | 15.3 | 0.008 µM | 7.34 µM | > 100 µM |  |

| Compound | inhibition [1] | Ratio [2] | Ratio [3] | IC50 [4] | IC50 [5] | IC50 [6] | also measured |
| --- | --- | --- | --- | --- | --- | --- | --- |
| CN(C)CCC(=O)Nc1ccc2nc3c4[nH]c5ccccc5c4ccn3c(=O)c2c1 | 20% | 2.2 | 15.3 | 0.0561 µM | 21.4 µM | 5.5 µM |  |
| O=C(CC[n+]1cccc(F)c1)Nc1ccc2nc3c4[nH]c5ccccc5c4ccn3c(=O)c2c1 | 20% | 2.2 | 15.3 | 0.0021 µM | 3.49 µM | > 100 µM |  |
| O=C(CC[n+]1ccccc1)Nc1ccc2nc3c4[nH]c5ccccc5c4ccn3c(=O)c2c1 | 20% | 2.2 | 15.3 | 0.0023 µM | 4.29 µM | > 100 µM |  |
| CN1CCN(CCC(=O)Nc2ccc3nc4c5[nH]c6ccccc6c5ccn4c(=O)c3c2)CC1 | 20% | 2.2 | 15.3 | 0.141 µM | 28.9 µM | 13.3 µM |  |
| O=C(CCC[n+]1ccccc1)Nc1ccc2nc3c4[nH]c5ccccc5c4ccn3c(=O)c2c1 | 20% | 2.2 | 15.3 | 0.0039 µM | 4.16 µM |  |  |
| CCN(CC)CCC(=O)Nc1ccc2nc3c4[nH]c5ccccc5c4ccn3c(=O)c2c1 | 20% | 2.2 | 15.3 | 0.0641 µM | 28.3 µM | 12.4 µM |  |
| CN(C)CC(=O)Nc1ccc2nc3c4[nH]c5ccccc5c4ccn3c(=O)c2c1 | 20% | 2.2 | 15.3 | 0.0701 µM | 26.5 µM | 4.1 µM |  |
| CCN(CC)CC(=O)Nc1ccc2nc3c4[nH]c5ccccc5c4ccn3c(=O)c2c1 | 20% | 2.2 | 15.3 | 0.0704 µM | 24.1 µM | 2.3 µM |  |
| O=C(CN1CCCCC1)Nc1ccc2nc3c4[nH]c5ccccc5c4ccn3c(=O)c2c1 | 20% | 2.2 | 15.3 | 0.07 µM | 23.2 µM | 6.3 µM |  |
| O=C(CN1CCCC1)Nc1ccc2nc3c4[nH]c5ccccc5c4ccn3c(=O)c2c1 | 20% | 2.2 | 15.3 | 0.0593 µM | 14.4 µM | 2.9 µM |  |
| O=C(CCN1CCCCC1)Nc1ccc2nc3c4[nH]c5ccccc5c4ccn3c(=O)c2c1 | 20% | 2.2 | 15.3 | 0.051 µM | 24 µM | 5 µM |  |
| O=C(CCc1ccccc1)Nc1ccc2nc3c4[nH]c5ccccc5c4ccn3c(=O)c2c1 | 20% | 2.2 | 15.3 | 0.108 µM | 26.1 µM |  |  |
| O=C(CCN1CCOCC1)Nc1ccc2nc3c4[nH]c5ccccc5c4ccn3c(=O)c2c1 | 20% | 2.2 | 15.3 | 0.0786 µM | 27.6 µM | 3.1 µM |  |
| O=C(C[n+]1cccc(F)c1)Nc1ccc2nc3c4[nH]c5ccccc5c4ccn3c(=O)c2c1 | 20% | 2.2 | 15.3 | 0.0006 µM | 1.86 µM | > 100 µM | Activity [9]: Active; Activity [10]: inactive; Activity [11]: inactive; Activity [12]: Active; Activity [13]: Active; Activity [14]: Active; Ratio IC50 [7]: 160; inhibition [15]: Active; Activity [16]: inactive; Activity [17]: inactive |
| C[N+](C)(C)CCC(=O)Nc1ccc2nc3c4[nH]c5ccccc5c4ccn3c(=O)c2c1 | 20% | 2.2 | 15.3 | 0.197 µM | 37.2 µM | 29.2 µM |  |
